For data set [1], the target named is T1, Prothrombin (Homo sapiens, UniProt P00734).
In a further data set the target is T2, Anionic trypsin-2 (Rattus norvegicus, UniProt P00763).
T2 sequence (P00763 whole entry): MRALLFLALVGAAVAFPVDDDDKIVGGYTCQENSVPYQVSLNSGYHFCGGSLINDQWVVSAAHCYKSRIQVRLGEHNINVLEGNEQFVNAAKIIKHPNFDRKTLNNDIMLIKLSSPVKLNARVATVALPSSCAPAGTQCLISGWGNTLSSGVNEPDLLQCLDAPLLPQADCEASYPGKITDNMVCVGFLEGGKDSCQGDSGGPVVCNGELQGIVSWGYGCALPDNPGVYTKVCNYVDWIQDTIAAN
Briefly: Inhibitory concentration against trypsin.

The target in the next data set is Coagulation factor X (Homo sapiens, UniProt P00742). Briefly: Inhibitory concentration to factor Xa.
Data set [2] in a line: Half-life period in rabbits following intravenous administration at 2 mg/kg. The conditions noted are these: rabbit, in vivo. It is filed as ADME, organism-based, Oryctolagus cuniculus. Details: dose 2 mg/kg, route intravenous.
Data set [3] relates to Oryctolagus cuniculus. Briefly: Percent inhibition of thrombosis at the dose of 50 ug/kg in rabbit deep vein thrombosis model. It is filed as functional.
Data set [4] concerns Oryctolagus cuniculus. Briefly: Percent inhibition of thrombosis at the dose of 100 ug/kg in rabbit deep vein thrombosis model. It is filed as functional.
Data set [5] can be described thus: Bioavailability in rat at an oral dose of 2 mg/kg. Format: ADME, organism-based. Conditions: in vivo.
The target of data set [6] is T1, Prothrombin. Briefly: Inhibitory concentration against factor IIa.
The nature of data set [7]: Half-life period in rats following intravenous administration at 2 mg/kg. It is filed as ADME, organism-based. On the set-up: dose 2 mg/kg, route intravenous. Conditions: rat, in vivo.
The test system of data set [8] is Oryctolagus cuniculus. Briefly: Plasma concentration at the dose of 100 ug/kg in rabbit. It is filed as functional, organism-based.
Data set [9] deals with Oryctolagus cuniculus. Briefly: Percent inhibition of thrombosis at the dose of 25 ug/kg in rabbit deep vein thrombosis model. Format: functional. The conditions noted are these: at 25 µg/kg.

Coagulation factor X, sequence (P00742 41-179 limits assumed): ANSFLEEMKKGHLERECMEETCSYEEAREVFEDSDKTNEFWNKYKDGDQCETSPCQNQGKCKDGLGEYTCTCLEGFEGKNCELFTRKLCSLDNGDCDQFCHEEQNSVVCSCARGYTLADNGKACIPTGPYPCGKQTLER
Coagulation factor X, sequence (P00742 235-488 limits assumed): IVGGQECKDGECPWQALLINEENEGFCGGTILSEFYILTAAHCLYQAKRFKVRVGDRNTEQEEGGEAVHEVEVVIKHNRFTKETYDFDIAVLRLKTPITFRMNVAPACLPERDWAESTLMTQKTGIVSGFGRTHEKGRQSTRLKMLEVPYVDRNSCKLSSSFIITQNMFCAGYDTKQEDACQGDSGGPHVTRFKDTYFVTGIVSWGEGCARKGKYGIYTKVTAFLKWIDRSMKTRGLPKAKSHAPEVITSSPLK

As to `CC(=N)N1CCC(Oc2ccc(N(Cc3ccc4ccc(C(=N)N)cc4c3)S(C)(=O)=O)cc2)CC1`, the IC50 is greater than 10000 nM against Prothrombin [1], 94 nM against Anionic trypsin-2 and 6 nM on Coagulation factor X.

As for `CC(=N)N1CCC(Oc2ccc(N(Cc3cc(-c4cccc(C(=N)N)c4)no3)S(C)(=O)=O)cc2)CC1`, the IC50 on Prothrombin [1] was greater than 10000 nM; against Anionic trypsin-2, greater than 10000 nM; against Coagulation factor X, 14 nM.

`CC(=N)N1CCC(Oc2ccc(N(Cc3cccc(-c4cccc(C(=N)N)c4)c3)S(C)(=O)=O)cc2)CC1`: the IC50 against Prothrombin [1] is greater than 10000 nM; at Anionic trypsin-2, 360 nM.

On to `CC(=N)N1CCC(Oc2ccc(N(Cc3ccc(-c4cccc(C(=N)N)c4)cc3)S(C)(=O)=O)cc2)CC1`, for which the IC50 on Prothrombin [1] is greater than 10000 nM; against Anionic trypsin-2, 769 nM.

For the compound `CC(=N)N1CCC(Oc2ccc(N(Cc3ccccc3-c3cccc(C(=N)N)c3)S(C)(=O)=O)cc2)CC1`, the concentration for half-maximal inhibition (IC50) at Prothrombin [1] is greater than 10000 nM; against Anionic trypsin-2, greater than 10000 nM; against Coagulation factor X, 7000 nM.

As for `CC(=N)N1CCC(Oc2ccc(N(Cc3cccc(-c4cccc(C(=N)N)c4)c3)S(=O)(=O)CC(=O)O)cc2)CC1`, the IC50 at Anionic trypsin-2 stood at 269 nM; against Coagulation factor X it was 3 nM.

As for `CC(=N)N1CCC(Oc2ccc(N(Cc3ccccc3-c3ccc(C(=N)N)cc3)S(C)(=O)=O)cc2)CC1`, the IC50 against Prothrombin [1], against Anionic trypsin-2 and at Coagulation factor X was greater than 10000 nM in each case.

With `CCOC(=O)CS(=O)(=O)N(Cc1cccc(-c2cccc(C(=N)N)c2)c1)c1ccc(OC2CCN(C(C)=N)CC2)cc1`, the values for the concentration for half-maximal inhibition (IC50) at Anionic trypsin-2 and on Coagulation factor X were 292 nM and 7 nM, respectively.

Regarding `CC(=N)N1CCC(Oc2ccc(N(Cc3cc(C)n(-c4cccc(C(=N)N)c4)n3)S(C)(=O)=O)cc2)CC1`, the values for the concentration for half-maximal inhibition (IC50) against Prothrombin [1] and against Anionic trypsin-2 were greater than 10000 nM and 2110 nM, respectively.

For `CS(=O)(=O)N(Cc1cccc(-c2cccc(C(=N)N)c2)c1)c1ccc(-c2ccccc2S(N)(=O)=O)cc1`, the IC50 on Coagulation factor X came to 191 nM.

On Coagulation factor X, `Cc1cc(CN(c2ccc(-c3ccccc3S(N)(=O)=O)cc2)S(C)(=O)=O)nn1-c1cccc(C(=N)N)c1` showed an IC50 of 3930 nM.

As to `CCOC(=O)CS(=O)(=O)N(Cc1ccc2ccc(C(=N)N)cc2c1)c1ccc(OC2CCN(C(C)=N)CC2)cc1`, the IC50 stood at 83 nM at Anionic trypsin-2 and 6 nM on Coagulation factor X.

As to `CC(=N)N1CCC(Oc2ccc3c(c2)OCC(=O)N3Cc2cccc(-c3cccc(C(=N)N)c3)c2)CC1`, the figures for the half-inhibitory concentration (IC50) against Prothrombin [1] and at Anionic trypsin-2 were greater than 10000 nM and 143 nM, respectively.

In the case of `Cc1cc(CN(c2ccc(-c3ccccc3S(N)(=O)=O)cc2)S(C)(=O)=O)n(-c2cccc(C(=N)N)c2)n1`, the IC50 against Coagulation factor X stood at 500 nM.

On Coagulation factor X, `CC(=N)N1CCN(C(=O)c2ccc(N(Cc3ccc4ccc(C(=N)N)cc4c3)S(C)(=O)=O)cc2)CC1` yielded an IC50 of 1570 nM.

For the compound `CC(=N)N1CCC(Oc2ccc(N(Cc3cc(C)nn3-c3cccc(C(=N)N)c3)S(C)(=O)=O)cc2)CC1`, the concentration for half-maximal inhibition (IC50) against Prothrombin [1] and against Anionic trypsin-2 was greater than 10000 nM each time.

As to `CC(=N)N1CCC(Oc2ccc3c(c2)OCC(=O)N3Cc2ccc3ccc(C(=N)N)cc3c2)CC1`, the half-life in data set [2] is 54 min; in [7], 30 min. The compound further returned an inhibition in vivo at 0.05 mg/kg in the data set on Oryctolagus cuniculus [3] of 44%. The same compound yielded an inhibition in vivo at 0.1 mg/kg in the data set on Oryctolagus cuniculus [4] of 99%. In [5], the bioavailability came to 4.6%. Besides, the IC50 against Prothrombin [6] is greater than 10000 nM; against Anionic trypsin-2 it was 28 nM. The compound further gave a Concentration in the data set on Oryctolagus cuniculus [8] of 200 nM. In addition, 0.025 mg/kg produced 7% inhibition in vivo with Oryctolagus cuniculus [9].

Turning to `CC(=N)N1CCC(Oc2ccc3c(c2)OCC(=O)N3Cc2cc3ccc(C(=N)N)cc3n2C)CC1`, at Anionic trypsin-2, the IC50 came out at 76 nM.

With `CC(=N)N1CCC(Oc2ccc(N(Cc3cc4cc(C(=N)N)ccc4s3)S(C)(=O)=O)cc2)CC1`, the IC50 is greater than 10000 nM on Prothrombin [1] and 21 nM against Anionic trypsin-2.

Turning to `CS(=O)(=O)N(Cc1ccc2ccc(C(=N)N)cc2c1)c1ccc(-c2ccccc2S(N)(=O)=O)cc1`, half-maximal inhibition against Coagulation factor X (IC50) was put at 153 nM.

Regarding `CC(=N)N1CCC(Oc2ccc3c(c2)OCC(=O)N3Cc2cc(-c3cccc(C(=N)N)c3)no2)CC1`, the 50% inhibitory concentration (IC50) was greater than 10000 nM against Prothrombin [1] and 250000 nM against Anionic trypsin-2.

`CC(=N)N1CCC(Oc2ccc(N(Cc3ccc4ccc(C(=N)N)cc4c3)S(=O)(=O)CC(=O)O)cc2)CC1` [YM-60828] had an IC50 on Anionic trypsin-2 of 63 nM.

In the case of `CC(=N)N1CCC(Oc2ccc(N(Cc3cc4cc(C(=N)N)ccc4n3C)S(C)(=O)=O)cc2)CC1`, the figures for the IC50 against Prothrombin [1], on Anionic trypsin-2 and against Coagulation factor X were greater than 10000 nM, 167 nM and 31 nM, respectively.

For `CC(=N)N1CCC(Oc2ccc(N(Cc3cc4ccc(C(=N)N)cc4n3C)S(C)(=O)=O)cc2)CC1`, the IC50 against Prothrombin [1] was greater than 10000 nM; against Anionic trypsin-2, 25 nM; against Coagulation factor X it was 0.8 nM.

At Anionic trypsin-2, `CCOC(=O)CS(=O)(=O)N(Cc1cc2cc(C(=N)N)ccc2s1)c1ccc(OC2CCN(C(C)=N)CC2)cc1` displayed an IC50 of 86 nM.

Consider `CC(=N)N1CCC(Oc2ccc(N(Cc3cc4cc(C(=N)N)ccc4s3)S(=O)(=O)CC(=O)O)cc2)CC1`, for which the results for the IC50 on Anionic trypsin-2 and against Coagulation factor X were 63 nM and 3 nM, respectively.

Turning to `CCn1c(CN2C(=O)COc3cc(OC4CCN(C(C)=N)CC4)ccc32)cc2ccc(C(=N)N)cc21`, the values for the IC50 on Anionic trypsin-2 and against Coagulation factor X were 58 nM and 2 nM, respectively.

What is called IC50 is the concentration that inhibits the measured activity by half. Low readings indicate inhibition by little substance, high ones a need for much substance. One may read the half-life as the time needed for the level to fall by half in the phase considered. Low values mean rapid decline, high ones slow decline. The term inhibition in vivo denotes the percentage by which the read-out fell short of the control. Higher therefore signals a response far below the control. What is called bioavailability is the share of a dose that reaches the circulation, judged against a reference dose that is usually intravenous. The low end stands for poor availability, the high end for good availability.

Values taken from ChEMBL document CHEMBL1136571, “Design, synthesis and structure-activity relationships of benzoxazinone-based factor Xa inhibitors” (Bioorg Med Chem Lett, 2003).
